In patent US20080188508A1, “Methods and Therapies for Potentiating a Therapeutic Action of an Opioid Receptor Agonist and Inhibiting and/or Reversing Tolerance to Opioid Receptor Agonists” (priority 2007, published 2008):

Key:
[1] = test system: CGRP-immunoreactive neurons in adult rat dorsal root ganglion cultures
Experimental: In this method, rats were decapitated and DRGs removed aseptically from the cervical, thoracic, lumbar, and sacral regions of the spinal cord. […] DRGs were minced, digested with 0.25% collagenase (Calbiochem) in Ham's F12 Medium (GIBCO/BRL) for 90 minutes at 37° C., and then trypsinized (0.25%) (GIBCO/BRL) for 1.5 hours at 37° C. Next, the tissues were triturated with a 19 gauge syringe in Dulbecco's Modified Eagle Medium (DMEM, GIBCO/BRL) containing 1% HEPES buffer, penicillin/streptomycin (1:100), and 10% Fetal Bovine Serum (GIBCO/BRL). Samples were then centrifuged at 500 g for 10 minutes. The resulting pellet was resuspended with DMEM and filtered through a cell strainer (70 μm, Falcon). DRG cells were seeded in a poly-D-lysine coated 96-well culture plate (Falcon) at a density of 5×10^4 cells/well and incubated at 37° C. with 5% CO2 and 95% O2 for the duration of the experiment. […]
To examine the effects of drug treatment on CGRP-immunoreactivity in the cultured DRG cells, the number of CGRP immunopositive cells was counted using an inverted phase microscope (Olympus CX2). […] The field of view in which CGRP-IR cells were counted measured 1 mm^2. […]
For the cultured DRG studies, the mean±s.e.mean of CGRP-immunopositive cells was obtained from 4 wells per treatment group in each of 3 separate cell cultures. Data are expressed as a percent of saline control wells. […]

[2] = test system: Sprague Dawley rats
Experimental: Experiments were performed in accordance with guidelines of the Canadian Council on Animal Care using protocols approved by the University Animal Care Committee. Adult male Sprague Dawley rats (200-250 grams) (Charles River, Quebec) were housed in separate cages and maintained on a 12 hour light/12 hour dark cycle with access to food and water ad libitum.
Animals were anaesthetized with halothane (4%) and implanted with an indwelling intrathecal catheter. A small puncture was made in the atlanto-occipital membrane and a polythene catheter (PE-10; 7.5 cm long) inserted caudally so that the tip rested on the lumbar enlargement of the spinal cord. The rostral end was exteriorized to facilitate drug administration. Surgical wounds were closed with sutures and animals allowed to recover for one week. Animals showing signs of forelimb or hindlimb paralysis were excluded from experiments. Drugs were injected in a 10 μl volume (i.t.) followed by 10 μl of 0.9% saline to flush the catheter.
Response to an acute thermal nociceptive stimulus was assessed in rats using the tail-flick test. Radiant heat was applied to the dorsal surface of the tail using an analgesic meter and the time latency for removal of the tail from the stimulus was recorded. […] A cutoff of 10 seconds was used in both studies to prevent tissue injury.
Response to an acute mechanical nociceptive stimulus was assessed using the paw-pressure test. Using an air-filled inverted syringe, pressure was gradually applied to the dorsal surface of the hindpaw until a paw withdrawal response was observed and the value (mmHg) recorded. A cut-off of 300 mmHg was used to prevent tissue injury.
Tail-flick and paw-pressure nociceptive tests were performed both before and 30 minutes after drug injection. […] Nociceptive testing was performed both before and 30 minutes after each injection.
The day following ED50 testing, spinal cords from animals were processed for CGRP immunohistochemical staining as described infra.
Tail-flick and paw-pressure values were converted to a maximum percentage effect (M.P.E.): M.P.E.=100×[post-drug response−baseline response]/[maximum response−baseline response]. Data in the figures are expressed as mean±s.e.mean. ED50 values were determined using a non-linear regression analysis (Prism 2, GraphPad Software Inc., San Diego, Calif., USA). Statistical significance (p<0.05) was determined using a one-way analysis of variance (ANOVA) followed by a Student Newman-Keuls post hoc test for multiple comparisons between groups.

[3] = dose of AM-251 used in these experiments; Trang et al. Pain 2006; cited from earlier work
[4] = i.t. morphine 15 μg, first injection, both tail-flick and paw-pressure test

C=CCN1CC[C@]23c4c5ccc(O)c4O[C@H]2C(=O)CC[C@@]3(O)[C@H]1C5 [naloxone]
effect on the morphine-induced increase in CGRP-immunopositive neurons ([1]; pre-treatment with naloxone 10 μM, morphine 20 μM): blocked

CN1CC[C@]23c4c5ccc(O)c4O[C@H]2[C@@H](O)C=C[C@H]3[C@H]1C5.O=S(=O)(O)O [morphine, Morphine sulphate]
antinociceptive effect on daily injection for 10 days ([2]; daily i.t. morphine (3.2 μg as printed) for 10 days, by day 5): progressive decline in morphine antinociception to baseline levels
time by which antinociceptive response returned to baseline [2, 4]: ≤ 90 min
time of maximal antinociceptive response post-injection [2, 4]: 30 min
increase in number of CGRP-immunopositive neurons compared to vehicle-treated controls ([1]; chronic morphine (20 μM) treatment for 5-days): approximately 57%

Cc1c(C(=O)NN2CCCCC2)nn(-c2ccc(Cl)cc2Cl)c1-c1ccc(I)cc1 [AM-251, 1-(2,4-dichlorophenyl)-5-(4-iodophenyl)-4-methyl-N-1-piperidinyl-1H-pyrazole-3-carboxamide]
effect on basal nociceptive responses ([2]; AM-251 3.2 μg administered alone over 5 days): did not have an effect
morphine ED50 value versus chronic saline treatment ([2]; AM-251 3.2 μg alone for 5 days): did not significantly alter
effect on basal nociceptive response ([2]; AM-251 3.2 μg in the absence of morphine on days 6-10): no effect
effect on the increase in morphine ED50 values ([2]; AM-251 (1.6 μg or 3.2 μg) co-administered with i.t. morphine for 5 days): completely blocked the increase in ED50 values
effect on the increase in morphine ED50 value ([2]; acute paradigm, co-treatment of AM-251 with morphine): suppressed the increase in ED50 value
morphine ED50 value versus saline-only control ([2]; acute paradigm, drug without the other drug: single morphine injection then saline, or AM-251 3.2 μg alone): did not change
effect on baseline antinociceptive responses ([2]; i.t. injections of AM-251 alone, acute paradigm, either test): no effect
morphine ED50 value versus saline-only animals ([2]; morphine days 1-5 discontinued, then saline (row morphine) or AM-251 alone (row AM-251) on days 6-10): comparable to saline-only
effect on anandamide-induced antinociception [3]: selectively block
influence on acute morphine-induced analgesia [3]: no influence
